Data as given in PMC11832194, “Cystatin from Austrelaps superbus snake venom as a model for identifying potential inhibitors of Trypanosoma cruzi cruzain” (The Journal of Venomous Animals and Toxins Including …, 2025).
Where two headings read alike, the source gives them in different places. No end group written: not given here.

How the values were obtained:
[1] = system: NCTC clone 929 fibroblasts; assay: In vitro cytotoxicity on fibroblasts (resazurin); assay type: cell-based, murine; settings: NCTC929 cells, 2 × 10^4 cells per well, 48 hours 37°C 5% CO2, peptides 500-62.5 µM, absorbance 570 and 600 nm
Method: In these experiments, NCTC clone 929 fibroblasts were cultured in a 96-well plate with 180 µL of minimal essential medium (MEM) supplemented with 10% FBS, penicillin and streptomycin antibiotics. About 2 × 10^4 cells per well were cultured and incubated at 37°C for 48 hours in a 5% CO2 environment with different concentrations of synthetic peptides (500-62.5 µM). Then, 20 µL of a resazurin solution was added, reaching a final concentration of 2 mM. The plate was incubated again at 37°C for 4 hours, and absorbance was monitored at 570 and 600 nm using a Synergy H1 multi-mode spectrophotometer (BIOTEK). GraphPad Prism software determined the half-maximal cytotoxic concentration (CC50) (v.6.01). The CC50 of the reference drug benznidazole was also determined to finally determine the selectivity index

[2] = biological target: epimastigote forms of clone CL B5 of Trypanosoma cruzi; assay: In vitro trypanocidal activity on epimastigotes (CPRG, β-galactosidase); assay type: cell-based; settings: T. cruzi CL B5 lacZ epimastigotes, 2.5 × 10^5 parasites/mL, 72 hours at 28°C, peptides 500-62.5 µM, CPRG read-out at 590 nm
Method: To assess the trypanocidal activity of the synthetic peptides, epimastigote forms of clone CL B5 of Trypanosoma cruzi, transfected with the Escherichia coli β-galactosidase gene (lacZ), were used. The parasites were cultivated at 28°C in liver infusion tryptose (LIT) medium, supplemented with 10% fetal bovine serum (FBS) and the antibiotics penicillin and streptomycin. About 200 µL of epimastigotes at 2.5 × 10^5 parasites/mL concentration were plated in a 96-well plate. The parasites were incubated at 28°C for 72 hours with different concentrations of peptides (500-62.5 µM). Then, 50 µL of chlorophenol red-β-D-galactopyranoside (CPRG) solution was added, reaching a final concentration of 200 µM. The plate was incubated again at 37°C for 4 hours, and absorbance was monitored at 590 nm using a spectrophotometer (Synergy H1 multi-mode BIOTEK). Benznidazole was used as a positive control. The half maximal inhibitory concentration (IC50) was determined using GraphPad Prism (v.6.01) software.

cruzain = biological target: T1, cruzain (Trypanosoma cruzi, UniProt P25779); assay: Inhibition of cruzain enzymatic (proteolytic) activity, casein substrate; assay type: biochemical; settings: cruzain 50 μM, peptide 500 to 62.5 μM, 1% casein substrate, Tris-HCl 0.1 M pH 8, 37°C, absorbance 280 nm, read-out: I50(µM) ± SD, inhibition of cruzain proteolytic activity
T1 construct: From 40 to 120 minutes, mature cruzain was obtained in a soluble and enzymatically active form; His tag (histidine tail); made in house; host or cells: E. coli BL21 DE3 (pET 21a (+) with the pro-cruzain gene)
Method: Cruzain at a final concentration of 50 μM was incubated for 30 minutes at 37°C with various concentrations of AsCystatin (50-6.25 μM). Subsequently, 1% casein substrate diluted in Tris-HCl 0.1 M, pH 8, was added. The mixture was incubated again for 30 minutes at 37°C, and the reaction was stopped by adding 250 μL of 20% Trichloroacetic Acid (TCA), followed by a 30-minute rest period at room temperature. Finally, the mixture was centrifuged at 10,000 × g for 15 minutes. Enzymatic activity inhibition was estimated by recording the absorbance of the supernatant at 280 nm using a microplate spectrophotometer (BioTek Eon). The concentration required to inhibit 50% of cruzain enzymatic activity was determined using GraphPad Prism 6.0 software.
The peptides designed, as mentioned in the previous section, were synthesized by AminoTech (São Paulo, Brazil). Subsequently, the ability of the synthetic peptides to inhibit cruzain enzymatic activity was assessed. For this procedure, different concentrations of each peptide (500 to 62.5 μM) were incubated with 50 μM cruzain, and the steps detailed in the section […] were carried out.

[3] = read-out: IC50 (µM) ± SD, trypanocidal activity

T1 sequence (P25779 123-337): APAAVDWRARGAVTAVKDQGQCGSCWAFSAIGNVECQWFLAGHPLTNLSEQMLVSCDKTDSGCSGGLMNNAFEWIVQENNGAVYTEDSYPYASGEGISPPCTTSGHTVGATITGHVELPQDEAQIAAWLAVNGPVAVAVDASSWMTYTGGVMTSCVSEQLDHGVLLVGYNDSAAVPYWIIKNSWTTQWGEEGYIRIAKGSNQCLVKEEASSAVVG

GGLQVVTGPW [Pep5] was tested, and the “IC50 (µM) ± SD, cytotoxic activity” value [1] was over 500 µM, the IC50 ([2]; SD) was 475.5 ± 1.65 µM and the IC50 (cruzain; SD) was 220 ± 0.48 µM.
For IPGGLSK [Pep1], the “IC50 (µM) ± SD, cytotoxic activity” value [1] was over 500 µM, the IC50 [2, 3] was over 500 µM and the IC50 (cruzain) was over 500 µM.
In the case of KGGLQVVTGAPWK [Pep7], the “IC50 (µM) ± SD, cytotoxic activity” value [1] is reported as over 500 µM, the IC50 ([2]; SD) is reported as 390.2 ± 2.1 µM and the IC50 (cruzain; SD) is reported as 388.5 ± 1.22 µM.
For KGGLQVVTGPWK [Pep6], the “IC50 (µM) ± SD, cytotoxic activity” value [1] was over 500 µM, the IC50 [2, 3] was over 500 µM and the IC50 (cruzain; SD) was 384.6 ± 0.77 µM.
For KIPGGQVVTGPWK [Pep8], the “IC50 (µM) ± SD, cytotoxic activity” value [1] was over 500 µM, the IC50 ([2]; SD) was 471.3 ± 1.8 µM and the IC50 (cruzain; SD) was 281.5 ± 2.19 µM.
In the case of “KQVVTGK [Pep4, linear peptide derived from AsCystatin with lysine residues at each end]”, the “IC50 (µM) ± SD, cytotoxic activity” value [1] is reported as over 500 µM, the IC50 [2, 3] is reported as over 500 µM and the IC50 (cruzain) is reported as over 500 µM.
For QSQVVTGAK [Pep3], the “IC50 (µM) ± SD, cytotoxic activity” value [1] was over 500 µM, the IC50 [2, 3] was over 500 µM and the IC50 (cruzain) was over 500 µM.
With QVVTG [Pep2] the “IC50 (µM) ± SD, cytotoxic activity” value [1] was over 500 µM, the IC50 [2, 3] was over 500 µM and the IC50 (cruzain) was over 500 µM.
